Reference: patent publication US12678509B2, “Inhibitor of apoptosis (IAP) protein antagonists” (Sanford Burnham Prebys Medical Discovery Institute, priority 2019, dated 2026)

Assays:
MOLM 13 = assay: Cell viability (CellTiter-Glo), 6-day compound treatment; format: cell-based, Human; conditions: Homo sapiens, MOLM-13, 144 h, read-out: MOLM 13 Viability 6 d IC50
Procedure: (§1) The compound 18a was tested in 16 different cell lines. For 6-day compound treatment 1700 cells per well were plated in a 384-well plate (Corning #781098) and incubated overnight at 37° C./5% CO2. The following day, compounds in 10-fold dilutions were added to the plates and the plates were incubated for 6 days. Afterwards, 20 μL CellTiter-Glo reagent (Promega, #G7570) was added to each well outside of the incubator and the plates were read for luminescence on a Spark® multimode microplate reader (Tecan). Data was fit in GraphPad Prism 8 to a nonlinear regression curve to determine the IC50 of the compounds. […]

SKOV-3 = assay: Cell viability (CellTiter-Glo), 48 hrs; format: cell-based; conditions: Homo sapiens, SK-OV-3, 48 h, read-out: SKOV-3 Viability 48 h IC50
Procedure: One thousand seven hundred cells per well were plated in a 384 well plate and incubated overnight at 37° C./5% CO2. The following day, compounds in 10-fold dilutions were added to the plates and the plates returned to the incubator for 48 hrs. 48 hrs later, plates were removed to the bench and 20 μL CellTiter-Glo reagent was added to each well and the plates were read for luminescence on a Spark® multimode microplate reader (Tecan). Data were fit using PRISM to a nonlinear regression curve to determine the IC50 of the compounds.

NB-4 = assay: Cell viability (CellTiter-Glo); format: cell-based, Human; conditions: Homo sapiens, NB-4, 72 h, read-out: NB-4 Viability 72 h IC50
Procedure: as §1, with “The following day, compounds in 10-fold dilutions were added to the plates and the plates were incubated for 6 days.” left out

[1] = system: latently infected cell line Jurkat 2D10; assay: HIV Jurkat 2D10 cells GFP+ assay (reversal of HIV latency); format: cell-based; conditions: Homo sapiens, Jurkat, 48 h, read-out: Jurkat 2D10 GFP+ EC50
Procedure: Several compounds (Table 5) were tested for their efficacy in the reversal of HIV latency in the latently infected cell line Jurkat 2D10. Jurkat 2D10 cells were treated with different doses of the compounds, or one of the following compounds: BV-6, SM-164, Birinapant, LCL-161, GDC-0152, AT-406 for 48 hours. Reversal of HW latency was evaluated by analyzing GFP expression using flow cytometry. Induction of GFP expression was compared to baseline GFP levels detected in the absence of treatment.

BIR3 domain of cIAP1 = BIR3 domain of cIAP1 (Homo sapiens, UniProt Q13490); assay: Fluorescence polarization assay; format: binding; conditions: SMAC-FITC probe, Ki calculated from IC50
BIR3 domain of cIAP1, sequence (Q13490 253-363 limits assumed): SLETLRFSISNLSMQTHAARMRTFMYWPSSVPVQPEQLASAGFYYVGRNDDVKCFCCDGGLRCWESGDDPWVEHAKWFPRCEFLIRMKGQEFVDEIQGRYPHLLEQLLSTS
Procedure: (§2) Binding of compounds to ML-IAP and BIR3 domain of cIAP1, cIAP2 and XIAP was determined by fluorescence polarization. Assay buffer was 100 mM KH2PO4 at pH 7.5, 50 μM ZnSO4, 1 mM TCEP (Tris(2-carboxyethyl)phosphine hydrochloride) and 50 nM SMAC-FITC probe (AbuRPF-K(5-Fam)-NH2) as described by Z. Nikolovska-Coleska et al.^9. cIAP1 and XIAP were present at 800 nM while cIAP2 and MLIAP were present at 1.5 μM. Compounds in 3-fold dilutions were added to the plates ranging from 30 μM to 1.5 nM. Assays were run in 384-well black plates read (Greiner Bio-One #784076) in an Analyst in fluorescence polarization mode with excitation at 485 nm and emission at 535 nm. Data was fit to a nonlinear regression curve in GraphPad Prism 8 to determine the IC50 values of the compounds. Ki's were then calculated from the IC50 values using equation: Ki=[I]50/([L]50/Kd+[P]0/Kd+1) formulated by Z. Nikolovska-Coleska et al.

ML-IAP = target: T1, ML-IAP (Homo sapiens, UniProt Q96CA5); assay: Fluorescence polarization assay; format: binding; conditions: SMAC-FITC probe, Ki calculated from IC50
T1 sequence (Q96CA5 1-298): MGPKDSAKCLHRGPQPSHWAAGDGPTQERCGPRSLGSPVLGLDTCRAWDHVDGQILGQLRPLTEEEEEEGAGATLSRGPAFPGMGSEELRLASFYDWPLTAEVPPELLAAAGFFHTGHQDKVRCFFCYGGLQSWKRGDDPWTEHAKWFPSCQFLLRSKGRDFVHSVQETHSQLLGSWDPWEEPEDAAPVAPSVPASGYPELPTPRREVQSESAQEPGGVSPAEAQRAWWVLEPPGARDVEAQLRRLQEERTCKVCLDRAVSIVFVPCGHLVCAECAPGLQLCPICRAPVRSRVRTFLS
Procedure: as §2

BIR3 domain of XIAP = BIR3 domain of XIAP (Homo sapiens, UniProt P98170); assay: Fluorescence polarization assay; format: binding; conditions: SMAC-FITC probe, Ki calculated from IC50
BIR3 domain of XIAP, sequence (P98170 241-356 limits assumed): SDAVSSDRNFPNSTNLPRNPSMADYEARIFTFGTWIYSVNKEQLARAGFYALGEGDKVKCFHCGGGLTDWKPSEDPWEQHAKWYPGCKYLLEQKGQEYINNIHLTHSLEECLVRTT
Procedure: as §2

BIR3 domain of cIAP2 = BIR3 domain of cIAP2 (Homo sapiens, UniProt Q13489); assay: Fluorescence polarization assay; format: binding; conditions: SMAC-FITC probe, Ki calculated from IC50
BIR3 domain of cIAP2, sequence (Q13489 238-349 limits assumed): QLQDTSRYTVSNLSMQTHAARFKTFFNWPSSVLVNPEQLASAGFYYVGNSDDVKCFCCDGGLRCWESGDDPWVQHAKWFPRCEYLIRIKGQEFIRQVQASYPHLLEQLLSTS
Procedure: as §2

[2] = Pharmacokinetic study in mice, snapshot PK; format: in vivo; conditions: female, C57BL/6J, mouse, plasma, ip, one hour after i.p. injection of 10 mg/kg
Procedure: All animal procedures were approved by the Sanford Burnham Prebys Medical Discovery Institute Institutional Animal Care and Use Committee and were performed according to the NIH guidelines for the Care and Use of Laboratory Animals. Adult female C57BL/6J were purchased from JAX laboratories and housed with free access to food and water on a 12 h light/dark cycle. Compounds were formulated in 5% DMSO, 10% Tween-80, and 85% dH2O and injected intraperitoneally (i.p.) into mice at doses of 10 mg/kg. For snapshot PK analysis, blood samples were collected retro-orbitally one hour after injection and for the time course PK study, blood samples were collected at 15 min, 30 min, 1 h, 2 h, 4 h, 6 h, 24 h time points. For the blood samples plasma was separated by centrifugation. Plasma samples were extracted with acetonitrile:water 4:1 with 0.1% formic acid containing indometacin as an internal standard. Samples were centrifuged and supernatants were diluted with acetonitrile:water and analyzed via LC-MS/MS on a Shimadzu Nexera X2 HPLC coupled to an AB Sciex 6500 QTRAP.
Plasma exposure of selected compounds at 1 h compared.
Plasma levels of parent compound determined one hour after i.p. injection of 10 mg/kg

Compound | IC50 (MOLM 13) [nM] | IC50 (SKOV-3) [nM] | IC50 (NB-4) [nM] | EC50 [1] [nM] | Ki (BIR3 domain of cIAP1) [nM] | Ki (ML-IAP) [nM] | Ki (BIR3 domain of XIAP) [nM] | Ki (BIR3 domain of cIAP2) [nM] | concentration at 1 h [2] [nM]
CN[C@@H](C)C(=O)N[C@H]1CCS[C@H]2CC(C)(C)[C@@H](C(=O)N[C@H]3c4ccccc4C[C@H]3OCCCCCCO[C@@H]3Cc4ccccc4[C@@H]3NC(=O)[C@H]3N4C(=O)[C@@H](NC(=O)[C@H](C)NC)CCS[C@H]4CC3(C)C)N2C1=O [Compound 18b, (2S)-1-{[(4S,7S,9aS)-7-({(1S,2R)-2-[(6-{[(1S,2R)-1-({[(4S,7S,9aS)-8,8-Dimethyl-4-{[(2S)-2-(methylammonio)propanoyl]amino}-5-oxooctahydropyrrolo[2,1-b][1,3]thiazepin-7-yl]carbonyl}amino)-2,3-dihydro-1H-inden-2-yl]oxy}hexyl)oxy]-2,3-dihydro-1H-inden-1-yl}carbamoyl)-8,8-dimethyl-5-oxooctahydropyrrolo[2,1-b][1,3]thiazepin-4-yl]amino}-N-methyl-1-oxopropan-2-ammonium dichloride] | 100 to 1000 | < 10 | < 10 | 1 to 10 | ≤ 50 | 50 to 100 | ≤ 50 | 50 to 100 | 714
CN[C@@H](C)C(=O)N[C@H]1CCS[C@H]2CC(C)(C)[C@@H](C(=O)N[C@H]3c4ccccc4C[C@H]3OCC#Cc3cccc(C#CCO[C@@H]4Cc5ccccc5[C@@H]4NC(=O)[C@H]4N5C(=O)[C@@H](NC(=O)[C@H](C)NC)CCS[C@H]5CC4(C)C)c3)N2C1=O [Compound 18d] | 100 to 1000 | < 10 | < 10 | < 1 | ≤ 50 |  |  |  | 
CN[C@@H](C)C(=O)N[C@H]1CCS[C@H]2CC(C)(C)[C@@H](C(=O)N[C@H]3c4ccccc4C[C@H]3OCc3ccc(-c4ccc(CO[C@@H]5Cc6ccccc6[C@@H]5NC(=O)[C@H]5N6C(=O)[C@@H](NC(=O)[C@H](C)NC)CCS[C@H]6CC5(C)C)cc4)cc3)N2C1=O [Compound 18f, (2S)-1-{[(4S,7S,9aS)-7-{[(1S,2R)-2-({4-[4-({[(1S,2R)-1-({[(4S,7S,9aS)-8,8-Dimethyl-4-{[(2S)-2-(methylammonio)propanoyl]amino}-5-oxooctahydropyrrolo[2,1-b][1,3]thiazepin-7-yl]carbonyl}amino)-2,3-dihydro-1H-inden-2-yl]oxy}methyl)phenyl]benzyl}oxy)-2,3-dihydro-1H-inden-1-yl]carbamoyl}-8,8-dimethyl-5-oxooctahydropyrrolo[2,1-b][1,3]thiazepin-4-yl]amino}-N-methyl-1-oxopropan-2-ammonium dichloride] | 100 to 1000 | < 10 | < 10 | 1 to 10 | 50 to 100 |  |  |  | 
CN[C@@H](C)C(=O)N[C@H]1CCS[C@H]2CC(C)(C)[C@@H](C(=O)N[C@H](CCOCC#CC#CCOCC[C@@H](NC(=O)[C@H]3N4C(=O)[C@@H](NC(=O)[C@H](C)NC)CCS[C@H]4CC3(C)C)c3ccccc3)c3ccccc3)N2C1=O [Compound 18i, (2S)-1-{[(4S,7S,9aS)-74{(1R)-3-[(6-{[(3R)-3-({[(4S,7S,9aS)-8,8-Dimethyl-4-{[(2S)-2-(methylammonio)propanoyl]amino}-5-oxooctahydropyrrolo[2,1-b][1,3]thiazepin-7-yl]carbonyl}amino)-3-phenylpropyl]oxy}hexa-2,4-diyn-1-yl)oxy]-1-phenylpropyl}carbamoyl)-8,8-dimethyl-5-oxooctahydropyrrolo[2,1-b][1,3]thiazepin-4-yl]amino}-N-methyl-1-oxopropan-2-ammonium dichloride] | 100 to 1000 | < 10 | < 10 | 10 to 100 | ≤ 50 | 50 to 100 | 50 to 100 | 50 to 100 | 1240
CN[C@@H](C)C(=O)N[C@H]1CCS[C@H]2CC(C)(C)[C@@H](C(=O)N[C@H]3c4ccccc4C[C@H]3OCC#CCO[C@@H]3Cc4ccccc4[C@@H]3NC(=O)[C@H]3N4C(=O)[C@@H](NC(=O)[C@H](C)NC)CCS[C@H]4CC3(C)C)N2C1=O [Compound 18j] | 1000 to 10000 | 10 to 100 | < 10 | 1000 to 10000 | ≤ 50 |  |  |  | 
CNC(C)(C)C(=O)N[C@H]1CCS[C@H]2CC(C)(C)[C@@H](C(=O)N[C@H]3c4ccccc4C[C@H]3OCC#CC#CCO[C@@H]3Cc4ccccc4[C@@H]3NC(=O)[C@H]3N4C(=O)[C@@H](NC(=O)C(C)(C)NC)CCS[C@H]4CC3(C)C)N2C1=O [Compound 18k, 1-{[(4S,7S,9aS)-7-({(1S,2R)-2-[(6-{[(1S,2R)-1-({[(4S,7S,9aS)-8,8-Dimethyl-4-{[2-methyl-2-(methylammonio)propanoyl]amino}-5-oxooctahydropyrrolo[2,1-b][1,3]thiazepin-7-yl]carbonyl}amino)-2,3-dihydro-1H-inden-2-yl]oxy}hexa-2,4-diyn-1-yl)oxy]-2,3-dihydro-1H-inden-1-yl}carbamoyl)-8,8-dimethyl-5-oxooctahydropyrrolo[2,1-b][1,3]thiazepin-4-yl]amino}-N,2-dimethyl-1-oxopropan-2-ammonium dichloride] | 1000 to 10000 | 100 to 1000 | 10 to 100 | > 10000 | 50 to 100 |  |  |  | 
CN[C@@H](C)C(=O)N[C@H]1CCS[C@H]2CC3(CC=CC3)[C@@H](C(=O)N[C@H]3c4ccccc4C[C@H]3OCC#CC#CCO[C@@H]3Cc4ccccc4[C@@H]3NC(=O)[C@H]3N4C(=O)[C@@H](NC(=O)[C@H](C)NC)CCS[C@H]4CC34CC=CC4)N2C1=O [Compound 18o] | 10 to 100 | < 10 |  | 1 to 10 | ≤ 50 | 100 to 200 | ≤ 50 | 50 to 100 | 5180
